# According to ChEMBL document CHEMBL2406917, “Phaeolschidins A-E, five hispidin derivatives with antioxidant activity from the fruiting body of Phaeolus schweinitzii collected in the Tibetan Plateau” (J Nat Prod, 2013):
# pIC50: −log10 of the molar value. Calls of active or inactive are those of the source. The calls are words filed in the database; no cut-off is given here.
# Columns and labels:
# [1] = Total antioxidant capacity of the compound at 50 uM relative to control; format: physicochemical
# [2] = Total antioxidant capacity of the compound at 25 uM relative to control; format: physicochemical
# [3] = test system: HCT-116; test: Cytotoxicity against human HCT116 cells up to 200 uM by MTT assay; format: cell-based
# [4] = test system: Liver; test: Antioxidant activity against Fe2+/ascorbic acid-induced lipid peroxidation in mouse liver homogenates assessed as total MDA level at 200 uM after 1.5 hrs; format: functional, tissue-based
# [5] = Total antioxidant capacity of the compound at 100 uM relative to control; format: physicochemical
# [6] = Total antioxidant capacity of the compound at 200 uM relative to control; format: physicochemical
# [7] = test system: SW480; test: Cytotoxicity against human SW480 cells up to 200 uM by MTT assay; format: cell-based
# [8] = test system: Liver; test: Antioxidant activity against Fe2+/ascorbic acid-induced lipid peroxidation in mouse liver homogenates after 1.5 hrs; format: functional, tissue-based
# [9] = test system: Radical scavenging activity; test: Antioxidant activity assessed as DPPH free radical scavenging activity after 30 mins; format: functional
SMILES,TAC [1] [U],TAC [2] [U],Activity [3],Activity [4],TAC [5] [U],TAC [6] [U],Activity [7],pIC50 [8],pIC50 [9]
CC(C)C(c1c(O)cc(/C=C/c2ccc(O)c(O)c2)oc1=O)c1c(O)cc(/C=C/c2ccc(O)c(O)c2)oc1=O,2.88,2.1,Non-toxic,Active,4.8,5.39,Non-toxic,< 3.70,< 3.70
O=C(O)CCC(c1c(O)cc(/C=C/c2ccc(O)c(O)c2)oc1=O)c1c(O)cc(/C=C/c2ccc(O)c(O)c2)oc1=O,8.41,6.82,Non-toxic,,9.74,10.74,Non-toxic,,4.05
O=C1O[C@H]([C@@H](O)CO)C(O)=C1O [ASCORBIC ACID],17.42,17.33,,,18.97,21.68,,,
CC(C)CC(c1c(O)cc(/C=C/c2ccc(O)c(O)c2)oc1=O)c1c(O)cc(/C=C/c2ccc(O)c(O)c2)oc1=O,5.28,3.61,Non-toxic,Active,7.6,10.81,Non-toxic,< 3.70,4.02
CC(c1c(O)cc(/C=C/c2ccc(O)c(O)c2)oc1=O)c1c(O)cc(/C=C/c2ccc(O)c(O)c2)oc1=O [PINILLIDINE],2.67,2.02,Non-toxic,Active,3.46,5.16,Non-toxic,< 3.70,< 3.70
O=C1CC(c2c(O)cc(/C=C/c3ccc(O)c(O)c3)oc2=O)CN1 (stereo unspecified),2.78,2.41,Non-toxic,,4.24,6.91,Non-toxic,,< 3.70
O=c1cc(O)cc(/C=C/c2ccc(O)c(O)c2)o1 [HISPIDIN],9.27,5.83,Non-toxic,Active,10.03,10.25,Non-toxic,< 3.70,4.23
COC(=O)CCC(c1c(O)cc(/C=C/c2ccc(O)c(O)c2)oc1=O)c1c(O)cc(/C=C/c2ccc(O)c(O)c2)oc1=O,3.4,3,Non-toxic,,6.5,11.06,Non-toxic,,4.02
